Data taken from patent publication US20230346961A1, “GLP-1 AND GIP RECEPTOR CO-AGONISTS” (Novo Nordisk A/S, priority 2020, published 2023).
Starred links: 1 amine or outer side, 2 acyl side, 3 side chain; linkers in the order of their positions; H or OH if unused. Non-standard residues stand in square brackets, D forms with d. Residues, ends and D or L forms follow the SMILES beside them. Groups on a side chain read outwards from the residue. *: point of attachment. C20 diacid = O=C(O)CCCCCCCCCCCCCCCCCCC(=O)*; γGlu = O=C(O)[C@H](CCC(=O)[*:2])N[*:1]; εLys = N[C@@H](CCCCN[*:1])C(=O)[*:2]; Trx = NC[C@H]1CC[C@H](C(=O)O)CC1; AEEA = NCCOCCOCC(=O)O; Aib = CC(C)(N)C(=O)O

How the values were obtained:
human GLP-1 receptor = human GLP-1 receptor (Homo sapiens, UniProt P43220); assay: cell-based; details: hGLP-1R
Method: (§1) The in vitro functional potency is the measure of target receptor activation in a whole cell assay.
(§2) In vitro functional potency was determined by measuring the response of the target receptor in a reporter gene assay in individual cell lines. […] When the respective receptor is activated, it results in the production of cAMP, which in turn results in expression of the luciferase protein. When assay incubation is completed, luciferase substrate (luciferin) is added resulting in the enzymatic conversion of luciferin to oxyluciferin and producing bioluminescence. The luminescence is measured as the readout for the assay.
(§3) The cells lines used in these assays were BHK cells with BHKTS13 as a parent cell line. The cell lines were derived from a clone containing the CRE luciferase element and were established by further transfection with the respective receptor to obtain the relevant cell line.
(§4) The cells were cultured at 37° C. with 5% CO2 in Cell Culture Medium. They were aliquoted and stored in liquid nitrogen. The cells were kept in continuous culture and were seeded out the day before each assay.
(§5) GLP-1R and GcgR Cell Culture Medium consisted of DMEM medium with 10% FBS, 500 μg/mL G418, and 300 μg/mL hygromycin. GIPR Cell Culture Medium consisted of DMEM medium with 10% FBS, 400 μg/mL G418, and 300 μg/mL hygromycin. Assay Buffer consisted of DMEM w/o phenol red, 10 mM Hepes, 1×Glutamax, 1% ovalbumin, and 0.1% Pluronic F-68 with the addition of HSA at twice the final assay concentration.
(§6) • 1) Cells were plated at 5000 cells/well and incubated overnight in the assay plate. • 2) Cells were washed once in DPBS. • 3) Stocks of the test compounds and reference compounds in concentrations ranging from 100-300 μM were diluted 1:150 in Assay Buffer. Compounds were then diluted 1:10 in column 1 of a 96 deep well dilution plate and then carried across the row creating a 3.5 fold, 12 point dilution curve. • 4) Assay Buffer (50 μl aliquot) with or without HSA was added to each well in the assay plate. • 5) A 50 μl aliquot of compound or blank was transferred from the dilution plate to the assay plate containing the Assay Buffer with or without HSA. • 6) The assay plate was incubated for 3 h in a 5% CO2 incubator at 37° C. 7) The cells were washed once with DPBS. • 8) A 100 μl aliquot of DPBS was added to each well of the assay plate. • 9) A 100 μl aliquot of steadylite plus reagent (light sensitive) was added to each well of the assay plate. • 10) Each assay plate was covered with aluminum foil to protect it from light and shaken at 250 RPM for 30 min at room temperature. • 11) Each assay plate was read in a microtiter plate reader.
(§7) The data from the microtiter plate reader was first regressed in an Excel in order to calculate the x-axis, log scale concentrations based on the individual test compound's stock concentration and the dilutions of the assay. […] The software performs a non-linear regression (log(agonist) vs response). A minimum of two replicates was measured for each sample. The reported values are averages of the replicates.

mouse GIP receptor = target: T1, mouse GIP receptor (Mus musculus, UniProt Q0P543); assay: cell-based
T1 sequence (Q0P543 19-460): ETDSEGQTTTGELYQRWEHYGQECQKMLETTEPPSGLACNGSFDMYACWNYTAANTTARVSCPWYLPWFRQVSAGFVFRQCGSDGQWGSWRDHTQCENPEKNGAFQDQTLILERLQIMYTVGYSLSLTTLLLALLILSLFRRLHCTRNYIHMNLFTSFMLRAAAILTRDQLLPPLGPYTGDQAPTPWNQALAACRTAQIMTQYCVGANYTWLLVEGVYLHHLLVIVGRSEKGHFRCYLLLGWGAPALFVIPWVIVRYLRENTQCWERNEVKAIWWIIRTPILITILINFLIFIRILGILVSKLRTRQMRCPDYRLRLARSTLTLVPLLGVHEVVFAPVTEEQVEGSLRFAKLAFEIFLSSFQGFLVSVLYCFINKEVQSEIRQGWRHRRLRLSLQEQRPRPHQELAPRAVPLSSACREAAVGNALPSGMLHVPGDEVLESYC

human glucagon receptor = human glucagon receptor (Homo sapiens, UniProt P47871); assay: cell-based
Method: as §1, §2, §3, §4, §5, §6, §7

mouse GLP-1 receptor = target: T2, mouse GLP-1 receptor (Mus musculus, UniProt O35659)
T2 sequence (O35659 22-463): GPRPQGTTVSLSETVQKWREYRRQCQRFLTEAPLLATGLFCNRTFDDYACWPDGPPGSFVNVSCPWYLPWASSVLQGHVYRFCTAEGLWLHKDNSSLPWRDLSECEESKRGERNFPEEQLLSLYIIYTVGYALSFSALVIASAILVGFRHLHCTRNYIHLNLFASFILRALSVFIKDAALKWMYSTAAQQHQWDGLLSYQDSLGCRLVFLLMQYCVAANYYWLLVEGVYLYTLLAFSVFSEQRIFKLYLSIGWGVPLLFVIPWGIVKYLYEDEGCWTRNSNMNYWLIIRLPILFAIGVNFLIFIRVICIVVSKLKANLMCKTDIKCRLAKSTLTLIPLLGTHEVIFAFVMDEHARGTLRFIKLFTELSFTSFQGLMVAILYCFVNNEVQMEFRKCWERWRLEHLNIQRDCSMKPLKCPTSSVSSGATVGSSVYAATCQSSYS
Method: as §1, §2, §3, §4, §5, §6, §7

Sequence of human glucagon receptor (P47871 26-477): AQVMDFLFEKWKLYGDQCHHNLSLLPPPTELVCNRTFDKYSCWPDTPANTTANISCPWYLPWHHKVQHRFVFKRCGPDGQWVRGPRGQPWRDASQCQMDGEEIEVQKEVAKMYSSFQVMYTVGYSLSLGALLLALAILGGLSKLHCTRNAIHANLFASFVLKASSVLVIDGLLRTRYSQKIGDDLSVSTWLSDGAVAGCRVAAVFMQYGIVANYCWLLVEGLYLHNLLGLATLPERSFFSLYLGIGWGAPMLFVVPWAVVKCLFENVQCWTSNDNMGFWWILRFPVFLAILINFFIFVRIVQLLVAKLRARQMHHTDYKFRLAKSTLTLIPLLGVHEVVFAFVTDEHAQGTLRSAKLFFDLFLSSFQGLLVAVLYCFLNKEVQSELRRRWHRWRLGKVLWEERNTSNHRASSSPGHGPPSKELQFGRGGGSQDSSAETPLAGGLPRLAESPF
Sequence of human GLP-1 receptor (P43220 24-463): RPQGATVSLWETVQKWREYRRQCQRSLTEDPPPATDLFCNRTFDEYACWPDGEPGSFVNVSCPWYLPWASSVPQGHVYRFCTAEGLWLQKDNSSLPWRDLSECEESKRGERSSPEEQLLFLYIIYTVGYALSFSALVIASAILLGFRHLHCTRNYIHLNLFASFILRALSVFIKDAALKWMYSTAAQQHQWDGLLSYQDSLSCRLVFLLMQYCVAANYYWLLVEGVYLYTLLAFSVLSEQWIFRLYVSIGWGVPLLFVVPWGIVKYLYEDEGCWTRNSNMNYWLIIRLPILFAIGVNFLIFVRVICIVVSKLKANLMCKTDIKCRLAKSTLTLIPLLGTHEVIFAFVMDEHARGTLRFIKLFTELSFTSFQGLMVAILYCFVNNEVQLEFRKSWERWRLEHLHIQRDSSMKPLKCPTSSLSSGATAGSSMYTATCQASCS

Compound | EC50 (human GLP-1 receptor; CRE Luc 0% HSA EC50, 0% HSA) | EC50 (human GLP-1 receptor; CRE Luc 1% HSA EC50, 1% HSA) | EC50 (mouse GIP receptor) | EC50 (human glucagon receptor) | EC50 (mouse GLP-1 receptor)
CC[C@H](C)[C@H](NC(=O)[C@H](CO)NC(=O)[C@H](Cc1ccc(O)cc1)NC(=O)[C@H](CC(=O)O)NC(=O)[C@H](CO)NC(=O)[C@@H](NC(=O)[C@H](Cc1ccccc1)NC(=O)[C@@H](NC(=O)CNC(=O)[C@H](CCC(=O)O)NC(=O)C(C)(C)NC(=O)[C@@H](N)Cc1ccc(O)cc1)[C@@H](C)O)[C@@H](C)O)C(=O)N[C@@H](Cc1ccc(O)cc1)C(=O)N[C@@H](CC(C)C)C(=O)N[C@@H](CCC(=O)O)C(=O)N[C@@H](CCCCN)C(=O)N[C@@H](CCC(N)=O)C(=O)N[C@@H](C)C(=O)N[C@@H](C)C(=O)NC(C)(C)C(=O)N[C@@H](CCCCNC(=O)[C@@H](N)CCCCNC(=O)[C@@H](N)CCCCNC(=O)CC[C@H](NC(=O)[C@H]1CC[C@H](CNC(=O)CCCCCCCCCCCCCCCCCCC(=O)O)CC1)C(=O)O)C(=O)N[C@@H](Cc1ccccc1)C(=O)N[C@H](C(=O)N[C@@H](CC(N)=O)C(=O)N[C@@H](Cc1c[nH]c2ccccc12)C(=O)N[C@@H](CC(C)C)C(=O)N[C@@H](CC(C)C)C(=O)N[C@@H](C)C(=O)NCC(=O)NCC(=O)N1CCC[C@H]1C(=O)N[C@@H](CO)C(=O)N[C@@H](CO)C(=O)NCC(=O)N[C@@H](C)C(=O)N1CCC[C@H]1C(=O)N1CCC[C@H]1C(=O)N1CCC[C@H]1C(=O)N[C@@H](CO)C(N)=O)C(C)C [Compound 16] (H-Y[Aib]EGTFTSDYSIYLEKQAA[Aib]K([εLys-εLys-γGlu-Trx-C20 diacid])FVNWLLAGGPSSGAPPPS-NH2; N-terminus assumed) | 0.0061 nM | 0.202 nM | 0.0169 nM | > 10 nM | 0.0035 nM
CC[C@H](C)[C@H](NC(=O)[C@H](CO)NC(=O)[C@H](Cc1ccc(O)cc1)NC(=O)[C@H](CC(=O)O)NC(=O)[C@H](CO)NC(=O)[C@@H](NC(=O)[C@H](Cc1ccccc1)NC(=O)[C@@H](NC(=O)CNC(=O)[C@H](CCC(=O)O)NC(=O)C(C)(C)NC(=O)[C@@H](N)Cc1ccc(O)cc1)[C@@H](C)O)[C@@H](C)O)C(=O)N[C@@H](Cc1ccc(O)cc1)C(=O)N[C@@H](CC(C)C)C(=O)N[C@@H](CCC(=O)O)C(=O)N[C@@H](CCCCNC(=O)COCCOCCNC(=O)COCCOCCNC(=O)CC[C@H](NC(=O)CCCCCCCCCCCCCCCCCCC(=O)O)C(=O)O)C(=O)N[C@@H](CCC(N)=O)C(=O)N[C@@H](C)C(=O)N[C@@H](C)C(=O)NC(C)(C)C(=O)N[C@@H](CCC(=O)O)C(=O)N[C@@H](Cc1ccccc1)C(=O)N[C@H](C(=O)N[C@@H](CC(N)=O)C(=O)N[C@@H](Cc1c[nH]c2ccccc12)C(=O)N[C@@H](CC(C)C)C(=O)N[C@@H](CC(C)C)C(=O)N[C@@H](C)C(=O)NCC(=O)NCC(=O)N1CCC[C@H]1C(=O)N[C@@H](CO)C(=O)N[C@@H](CO)C(=O)NCC(=O)N[C@@H](C)C(=O)N1CCC[C@H]1C(=O)N1CCC[C@H]1C(=O)N1CCC[C@H]1C(=O)N[C@@H](CO)C(N)=O)C(C)C [Compound 29] (H-Y[Aib]EGTFTSDYSIYLEK([AEEA-AEEA-γGlu-C20 diacid])QAA[Aib]EFVNWLLAGGPSSGAPPPS-NH2; N-terminus assumed) | 0.0062 nM | 0.429 nM | 0.051 nM | > 10 nM | 0.0018 nM
CC[C@H](C)[C@H](NC(=O)[C@H](CO)NC(=O)[C@H](Cc1ccc(O)cc1)NC(=O)[C@H](CC(=O)O)NC(=O)[C@H](CO)NC(=O)[C@@H](NC(=O)[C@H](Cc1ccccc1)NC(=O)[C@@H](NC(=O)CNC(=O)[C@H](CCC(=O)O)NC(=O)C(C)(C)NC(=O)[C@@H](N)Cc1ccc(O)cc1)[C@@H](C)O)[C@@H](C)O)C(=O)N[C@@H](Cc1ccc(O)cc1)C(=O)N[C@@H](CC(C)C)C(=O)N[C@@H](CC(=O)O)C(=O)N[C@@H](CCCCN)C(=O)N[C@@H](CCC(N)=O)C(=O)N[C@@H](C)C(=O)N[C@@H](C)C(=O)NC(C)(C)C(=O)N[C@@H](CCCCNC(=O)[C@@H](N)CCCCNC(=O)[C@@H](N)CCCCNC(=O)CC[C@H](NC(=O)[C@H]1CC[C@H](CNC(=O)CCCCCCCCCCCCCCCCCCC(=O)O)CC1)C(=O)O)C(=O)N[C@@H](Cc1ccccc1)C(=O)N[C@H](C(=O)N[C@@H](CC(N)=O)C(=O)N[C@@H](Cc1c[nH]c2ccccc12)C(=O)N[C@@H](CC(C)C)C(=O)N[C@@H](CC(C)C)C(=O)N[C@@H](C)C(=O)NCC(=O)NCC(=O)N1CCC[C@H]1C(=O)N[C@@H](CO)C(=O)N[C@@H](CO)C(=O)NCC(=O)N[C@@H](C)C(=O)N1CCC[C@H]1C(=O)N1CCC[C@H]1C(=O)N1CCC[C@H]1C(=O)N[C@@H](CO)C(N)=O)C(C)C [Compound 14] (H-Y[Aib]EGTFTSDYSIYLDKQAA[Aib]K([εLys-εLys-γGlu-Trx-C20 diacid])FVNWLLAGGPSSGAPPPS-NH2; N-terminus assumed) | 0.0114 nM | 0.377 nM | 0.0186 nM | > 10 nM | 0.006 nM
CC[C@H](C)[C@H](NC(=O)[C@H](CO)NC(=O)[C@H](Cc1ccc(O)cc1)NC(=O)[C@H](CC(=O)O)NC(=O)[C@H](CO)NC(=O)[C@@H](NC(=O)[C@H](Cc1ccccc1)NC(=O)[C@@H](NC(=O)CNC(=O)[C@H](CCC(=O)O)NC(=O)C(C)(C)NC(=O)[C@@H](N)Cc1ccc(O)cc1)[C@@H](C)O)[C@@H](C)O)C(=O)N[C@@H](Cc1ccc(O)cc1)C(=O)N[C@@H](CC(C)C)C(=O)N[C@@H](CC(=O)O)C(=O)N[C@@H](CCCCN)C(=O)N[C@@H](CCC(N)=O)C(=O)N[C@@H](C)C(=O)N[C@@H](C)C(=O)NC(C)(C)C(=O)N[C@@H](CCCCNC(=O)[C@@H](N)CCCCNC(=O)[C@@H](N)CCCCNC(=O)CC[C@H](NC(=O)CCCCCCCCCCCCCCCCCCC(=O)O)C(=O)O)C(=O)N[C@@H](Cc1ccccc1)C(=O)N[C@H](C(=O)N[C@@H](CC(N)=O)C(=O)N[C@@H](Cc1c[nH]c2ccccc12)C(=O)N[C@@H](CC(C)C)C(=O)N[C@@H](CC(C)C)C(=O)N[C@@H](C)C(=O)NCC(=O)NCC(=O)N1CCC[C@H]1C(=O)N[C@@H](CO)C(=O)N[C@@H](CO)C(=O)NCC(=O)N[C@@H](C)C(=O)N1CCC[C@H]1C(=O)N1CCC[C@H]1C(=O)N1CCC[C@H]1C(=O)N[C@@H](CO)C(N)=O)C(C)C [Compound 13] (H-Y[Aib]EGTFTSDYSIYLDKQAA[Aib]K([εLys-εLys-γGlu-C20 diacid])FVNWLLAGGPSSGAPPPS-NH2; N-terminus assumed) | 0.0124 nM | 0.103 nM | 0.057 nM | > 10 nM | 0.0054 nM
CC[C@H](C)[C@H](NC(=O)[C@H](CO)NC(=O)[C@H](Cc1ccc(O)cc1)NC(=O)[C@H](CC(=O)O)NC(=O)[C@H](CO)NC(=O)[C@@H](NC(=O)[C@H](Cc1ccccc1)NC(=O)[C@@H](NC(=O)CNC(=O)[C@H](CCC(=O)O)NC(=O)C(C)(C)NC(=O)[C@@H](N)Cc1ccc(O)cc1)[C@@H](C)O)[C@@H](C)O)C(=O)N[C@@H](Cc1ccc(O)cc1)C(=O)N[C@@H](CC(C)C)C(=O)N[C@@H](CCC(=O)O)C(=O)N[C@@H](CCCCN)C(=O)N[C@@H](CCCCNC(=O)[C@@H](N)CCCCNC(=O)[C@@H](N)CCCCNC(=O)CC[C@H](NC(=O)[C@H]1CC[C@H](CNC(=O)CCCCCCCCCCCCCCCCCCC(=O)O)CC1)C(=O)O)C(=O)N[C@@H](C)C(=O)N[C@@H](C)C(=O)NC(C)(C)C(=O)N[C@@H](CCC(=O)O)C(=O)N[C@@H](Cc1ccccc1)C(=O)N[C@H](C(=O)N[C@@H](CC(N)=O)C(=O)N[C@@H](Cc1c[nH]c2ccccc12)C(=O)N[C@@H](CC(C)C)C(=O)N[C@@H](CC(C)C)C(=O)N[C@@H](C)C(=O)NCC(=O)NCC(=O)N1CCC[C@H]1C(=O)N[C@@H](CO)C(=O)N[C@@H](CO)C(=O)NCC(=O)N[C@@H](C)C(=O)N1CCC[C@H]1C(=O)N1CCC[C@H]1C(=O)N1CCC[C@H]1C(=O)N[C@@H](CO)C(N)=O)C(C)C [Compound 23] (H-Y[Aib]EGTFTSDYSIYLEKK([εLys-εLys-γGlu-Trx-C20 diacid])AA[Aib]EFVNWLLAGGPSSGAPPPS-NH2; N-terminus assumed) | 0.004 nM | 0.178 nM | 0.0175 nM | > 10 nM | 0.0037 nM
